Laboratory results from patent US20080085264A1, “METHODS FOR ENHANCING STEM CELL ENGRAFTMENT DURING TRANSPLANTATION” (priority 2003, published 2008).

Tests used:
[1] = test system: BoyJ recipient mice; experiment: Non-competitive long-term engraftment; format: in vivo, mouse; conditions: six months post transplant, P<0.05, n=5
Protocol: Control C57BL/6 (CD45.2^+) or CD26 inhibitor treated C57BL/6 (CD45.2^+) LD donor BM cells were transplanted by tail-vein injection into lethally irradiated (1100 cGy split dose) congenic BoyJ (CD45.1^+) female recipient mice (Haneline L S, et al. Blood. 1999; 94:1-8). Contribution of donor cells was obtained by measuring the number of donor and residual recipient lymphocytes in the peripheral blood. The % donor contribution was calculated by flow cytometric analysis of peripheral blood lymphocytes found in the recipient mouse peripheral blood by measuring CD45.1^+ and CD45.2^+ on cells isolated from the recipient mice 1-6 months post transplant. No less than five mice from each recipient group were analyzed, each one having received a transplant of 5×10^5 pooled LD donor BM cells. Comparisons between treatment groups were made using a two-tailed Student's t-test and data was plotted as mean (M)±standard error of the mean (SEM).

[2] = target: T1, CD26/DPPIV (Mus musculus, UniProt P28843); experiment: CD26/DPPIV peptidase activity of C57BL/6 BM cells (Gly-Pro-pNA); format: cell-based
T1 construct: endogenous in cells; host or cells: sorted mouse (C57BL/6) bone marrow cells
Protocol: Proteolytic activity was determined by measurement of the amount of p-nitroanilide (pNA) formed in the supernatant at 405 nm. One thousand cells per well in the 96-well flat-bottomed plate were incubated at 37° C. with 4 mM Gly-Pro-pNA in 100 μL PBS buffer (pH 7.4) containing 10 mg/ml BSA. Absorbance was measured at 405 nm on a microplate spectrofluorometer (SpectraMax 190, Molecular Devices, Sunnyvale, Calif.) every two minutes and pmoles of pNA formed were calculated by comparison to a pNA standard curve. The results were plotted as pmoles pNA versus minutes and the slope was calculated at the linear portion of the curve giving a measure of DPPIV activity expressed as pmoles/min (U) per 1000 cells. Tests were run using three separate samples (n=3 for each sample); cell-free blanks, substrate-free blanks were run in parallel.

[3] = test system: Sca-1+c-kit+lin- mBM cells; experiment: Chemotaxis assay, CXCL12 induced migration of sorted Sca-1+c-kit+lin- mBM cells; format: cell-based, mouse; conditions: 5 mM Diprotin A
Protocol: Chemotaxis assays were performed using 96-well chemotaxis chambers (NeuroProbe, Gaithersburg, Md.) in accordance with manufacturer's instructions as described previously with minor variations (Christopherson K W, 2nd, et al. J Immunol. 2002; 169:7000-7008; Christopherson K W, 2nd, et al. Blood. 2001; 98:3562-3568; Christopherson K, 2nd, et al. Immunol Lett. 1999; 69:269-273). Briefly 300 μl of RPMI supplemented with 10% FBS and either 0, 100, 200, and 400 ng/ml of mouse CXCL12 chemokine was added to the lower chamber. Ten-thousand sorted cells in 50 μL of media were added to the upper side of the membrane (5.7 mm diameter, 5 μm pore size, polycarbonate membrane.)
Total cell number in the lower well was obtained by counting using hemocytometer after 4 hours of incubation at 37° C., 5% CO2. Percent migration was calculated by dividing the number of the cells in the lower well by the total cell input multiplied by 100 and subtracting random migration (always less than 5%) to the lower chamber without chemokine presence. Three samples were analyzed separately in triplicate, and then the data averaged for statistical analysis.
The N-terminal truncated mouse CXCL12 (CXCL12 (amino acids 3-68)) was produced by treatment of mouse CXCL12 with DPPIV (Enzyme Systems Products, Livermore, Calif.) for 18 hrs at 37° C. in PBS pH 7.4. […]

[4] = test system: C57BL/6 mice; experiment: G-CSF induced mobilization of HSC/HPC in C57BL/6 mice (progenitor cell assays of peripheral blood); format: in vivo; conditions: 5 μmol/mouse 2×/day s.c. alone, without G-CSF
[5] = test system: BoyJ irradiated mice; experiment: Competitive repopulation assay; format: in vivo, mouse; conditions: six months post transplant, 5×10^5 or 2.5×10^5 donor cells vs 5×10^5 competitor BoyJ cells
Excerpt: Donor LDBM cells (5×10^5) from representative mice from each test group were transplanted into lethally irradiated BoyJ mice (expressing CD45.1) Quantitative contribution to chimerism was obtained 2-6 months post-transplantation in the same manner described for long-term engraftment assays.
Eight week old female recipient mice were lethally irradiated (1100 cGy split dose) prior to transplantation as previously described (Haneline L S, et al. Blood. 1999; 94:1-8). Limiting dilutions of donor LD BM cells (5×10^5, 2.5×10^5, 1.25×10^5, and 0.625×10^5 cells) from control C57Bl/6 mice, CD26-inhibitor treated LD BM cells, or untreated LD BM cells from CD26^−/− mice (all expressing CD45.2) are co-transplanted with a constant number (5×10^5) of pooled competitive BM cells from congenic BoyJ mice (expressing CD45.1), into BoyJ irradiated mice. To determine quantitatively the relative cell contribution to chimerism of each test cell population tail-vein blood samples were obtained post-transplantation each month for three months and CD45.1 and CD45.2 was measured by flow-cytometry. Cells were divided into CD26 inhibitor (either Diprotin A or Val-Pyr) treated or untreated groups obtained from normal C57BL/6 mice and untreated cells obtained from CD26^−/− mice. […]

T1 sequence (P28843 whole entry): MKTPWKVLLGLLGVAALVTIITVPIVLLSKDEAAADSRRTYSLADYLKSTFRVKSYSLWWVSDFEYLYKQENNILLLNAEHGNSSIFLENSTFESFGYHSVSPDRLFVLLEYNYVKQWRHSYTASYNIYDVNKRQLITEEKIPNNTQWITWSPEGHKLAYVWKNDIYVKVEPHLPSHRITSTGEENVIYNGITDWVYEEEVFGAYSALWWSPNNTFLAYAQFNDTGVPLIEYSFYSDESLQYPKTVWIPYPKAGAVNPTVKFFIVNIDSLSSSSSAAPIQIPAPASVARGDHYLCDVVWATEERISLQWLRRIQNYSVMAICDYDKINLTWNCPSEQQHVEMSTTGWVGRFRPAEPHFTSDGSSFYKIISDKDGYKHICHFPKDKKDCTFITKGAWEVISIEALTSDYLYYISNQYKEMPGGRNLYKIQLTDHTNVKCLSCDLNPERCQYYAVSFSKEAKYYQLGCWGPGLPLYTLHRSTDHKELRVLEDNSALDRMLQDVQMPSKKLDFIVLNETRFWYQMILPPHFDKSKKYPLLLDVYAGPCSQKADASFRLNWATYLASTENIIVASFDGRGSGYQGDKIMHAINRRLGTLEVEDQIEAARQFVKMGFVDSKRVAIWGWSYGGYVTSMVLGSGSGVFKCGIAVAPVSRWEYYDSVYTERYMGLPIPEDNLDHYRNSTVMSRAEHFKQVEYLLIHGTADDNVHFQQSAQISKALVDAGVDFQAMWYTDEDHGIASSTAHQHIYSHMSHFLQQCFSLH

Ile-Pro-Ile [Diprotin A] was tested, and the “donor cell contribution to the formation of peripheral blood leukocytes” value [1] was “Increased donor cell contribution”, the “CD26 peptidase activity with inhibitor treatment” value ([2]; C57BL/6 BM cells, P<0.01) was “rapidly lost” and the “recovery of CD26 activity begins, time post treatment” value ([2]; cells washed 15 minutes post inhibitor treatment) was “within four hours”. The enhancement in migration ([3]; 100 ng/ml CXCL12) was “two-fold”, the “increase in total cell migration” value ([3]; 200 and 400 ng/ml CXCL12) was 1.7 fold and the “effect on the mobilization of progenitors, inhibitor alone” value [4] was “little or no effect”. For the same substance, the “donor contribution to chimerism” value [5] was “increased donor contribution to chimerism”.
